Columns and labels:
pathogenic bacteria = assay: activity against pathogenic bacteria; details: human or veterinary medicine
Description: Its broad area of use corresponds to that of CCDC.

[1] = storage stability of the crystal modification; assay type: physicochemical; details: prolonged storage; solid state
Description: For these reasons, it is highly suitable for preparing tablets or other solid formulations. Owing to its stability, it gives these formulations the desired long-lasting storage stability. Using the crystal modification D, it is therefore possible to prepare, in a defined and targeted manner, stable solid preparations of CCDC.

[2] = hygroscopicity of the solid; assay type: physicochemical; details: powder obtained by the prior-art preparation process
Description: The partially amorphous powder which is obtained by the preparation process outlined above is furthermore hygroscopic. However, amorphous solids, and in particular hygroscopic solids, are difficult to handle when being processed pharmaceutically since, for example, they have low bulk densities and unsatisfactory flow properties. Moreover, the handling of hygroscopic solids requires special work techniques and apparatuses to obtain reproducible results, for example with respect to the active compound content or the stability of the solid formulations produced.

N#Cc1c(N2C[C@@H]3CCCN[C@@H]3C2)c(F)cc2c(=O)c(C(=O)O)cn(C3CC3)c12 [CCDC of the crystal modification D, 8-cyano-1-cyclopropyl-7-(1S,6S-2,8-diazabicyclo[4.3.0]nonan-8-yl)-6-fluoro-1,4-dihydro-4-oxo-3-quinolinecarboxylic acid]
activity against pathogenic bacteria (pathogenic bacteria): highly active | stability of the crystal modification on storage [1]: surprisingly stable and does not change into another crystal modification or the amorphous form, even on prolonged storage

N#Cc1c(N2C[C@@H]3CCCN[C@@H]3C2)c(F)cc2c(=O)c(C(=O)O)cn(C3CC3)c12 [partially amorphous powder, 8-cyano-1-cyclopropyl-7-(1S,6S-2,8-diazabicyclo[4.3.0]nonan-8-yl)-6-fluoro-1,4-dihydro-4-oxo-3-quinolinecarboxylic acid]
hygroscopicity [2]: hygroscopic
